Laboratory results from ChEMBL document CHEMBL1151582, “The effect of pH on the solution structure of 1-pyrroline-2-carboxylic acid as revealed by NMR and electrospray mass spectroscopy” (Bioorg Med Chem Lett, 1993).

How the values were obtained:
[1] = Acid dissociation constant of compound was determined (for carboxylic acid group); assay type: ADME
[2] = Acid dissociation constant of compound was determined (for pyrrolinium group); assay type: ADME

pKa [1]: 1.8
pKa [2]: 6.2
SMILES: O=C(O)C1=NCCC1
